What was measured:
CCRF-CEM = test: NCI60 one-dose screen (10 μM), Leukemia; format: cell-based; conditions: Homo sapiens, 10 μM, Leukemia, read-out: Growth percent rate
HL-60(TB) = test: NCI60 one-dose screen (10 μM), Leukemia; format: cell-based; conditions: Homo sapiens; 10 μM; HL-60(TB), Leukemia; read-out: Growth percent rate
K-562 = test: NCI60 one-dose screen (10 μM), Leukemia; format: cell-based; conditions: Homo sapiens, K562; 10 μM; K-562, Leukemia; read-out: Growth percent rate
MOLT-4 = test: NCI60 one-dose screen (10 μM), Leukemia; format: cell-based, human; conditions: Homo sapiens; 10 μM; MOLT-4, Leukemia; read-out: Growth percent rate
RPMI-8226 = test: NCI60 one-dose screen (10 μM), Leukemia; format: cell-based; conditions: Homo sapiens; 10 μM; RPMI-8226, Leukemia; read-out: Growth percent rate
A549/ATCC = test: NCI60 one-dose screen (10 μM), Non-small Cell Lung Cancer; format: cell-based; conditions: Homo sapiens; 10 μM; A549/ATCC, Non-small Cell Lung Cancer; read-out: Growth percent rate
EKVX = test: as above; format: cell-based; conditions: Homo sapiens, 10 μM, Non-small Cell Lung Cancer, read-out: Growth percent rate
HOP-62 = test: as above; format: cell-based; conditions: Homo sapiens; 10 μM; HOP-62, Non-small Cell Lung Cancer; read-out: Growth percent rate
NCI-H23 = test: as above; format: cell-based; conditions: Homo sapiens; 10 μM; NCI-H23, Non-small Cell Lung Cancer; read-out: Growth percent rate
NCI-H322M = test: as above; format: cell-based; conditions: Homo sapiens, 10 μM, Non-small Cell Lung Cancer, read-out: Growth percent rate
NCI-H460 = test: as above; format: cell-based; conditions: Homo sapiens; 10 μM; NCI-H460, Non-small Cell Lung Cancer; read-out: Growth percent rate
NCI-H522 = test: as above; format: cell-based; conditions: Homo sapiens; 10 μM; NCI-H522, Non-small Cell Lung Cancer; read-out: Growth percent rate
COLO 205 = test: NCI60 one-dose screen (10 μM), Colon Cancer; format: cell-based, human
HCC-2998 = test: NCI60 one-dose screen (10 μM), Colon Cancer; format: cell-based; conditions: Homo sapiens; 10 μM; HCC-2998, Colon Cancer; read-out: Growth percent rate
HCT-116 = test: NCI60 one-dose screen (10 μM), Colon Cancer; format: cell-based; conditions: Homo sapiens; 10 μM; HCT-116, Colon Cancer; read-out: Growth percent rate
HCT-15 = test: NCI60 one-dose screen (10 μM), Colon Cancer; format: cell-based; conditions: Homo sapiens; 10 μM; HCT-15, Colon Cancer; read-out: Growth percent rate
HT29 = test: NCI60 one-dose screen (10 μM), Colon Cancer; format: cell-based; conditions: Homo sapiens, HT-29; 10 μM; HT29, Colon Cancer; read-out: Growth percent rate
KM12 = test: NCI60 one-dose screen (10 μM), Colon Cancer; format: cell-based, human; conditions: Homo sapiens; 10 μM; KM12, Colon Cancer; read-out: Growth percent rate
SW-620 = test: NCI60 one-dose screen (10 μM), Colon Cancer; format: cell-based; conditions: Homo sapiens; 10 μM; SW-620, Colon Cancer; read-out: Growth percent rate
SF-295 = test: NCI60 one-dose screen (10 μM), CNS Cancer; format: cell-based; conditions: Homo sapiens; 10 μM; SF-295, CNS Cancer; read-out: Growth percent rate
SF-539 = test: NCI60 one-dose screen (10 μM), CNS Cancer; format: cell-based, human; conditions: Homo sapiens; 10 μM; SF-539, CNS Cancer; read-out: Growth percent rate
SNB-19 = test: NCI60 one-dose screen (10 μM), CNS Cancer; format: cell-based; conditions: Homo sapiens; 10 μM; SNB-19, CNS Cancer; read-out: Growth percent rate
SNB-75 = test: NCI60 one-dose screen (10 μM), CNS Cancer; format: cell-based, human; conditions: Homo sapiens; 10 μM; SNB-75, CNS Cancer; read-out: Growth percent rate
U251 = test: NCI60 one-dose screen (10 μM), CNS Cancer; format: cell-based; conditions: Homo sapiens, U-251; 10 μM; U251, CNS Cancer; read-out: Growth percent rate
MALME-3M = test: NCI60 one-dose screen (10 μM), Melanoma; format: cell-based; conditions: Homo sapiens; 10 μM; MALME-3M, Melanoma; read-out: Growth percent rate
M14 = test: NCI60 one-dose screen (10 μM), Melanoma; format: cell-based; conditions: Homo sapiens; 10 μM; M14, Melanoma; read-out: Growth percent rate
MDA-MB-435 = test: NCI60 one-dose screen (10 μM), Melanoma; format: cell-based; conditions: Homo sapiens; 10 μM; MDA-MB-435, Melanoma; read-out: Growth percent rate
SK-MEL-2 = test: NCI60 one-dose screen (10 μM), Melanoma; format: cell-based; conditions: Homo sapiens; 10 μM; SK-MEL-2, Melanoma; read-out: Growth percent rate
SK-MEL-28 = test: NCI60 one-dose screen (10 μM), Melanoma; format: cell-based; conditions: Homo sapiens; 10 μM; SK-MEL-28, Melanoma; read-out: Growth percent rate
SK-MEL-5 = test: NCI60 one-dose screen (10 μM), Melanoma; format: cell-based, human
UACC-257 = test: NCI60 one-dose screen (10 μM), Melanoma; format: cell-based; conditions: Homo sapiens; 10 μM; UACC-257, Melanoma; read-out: Growth percent rate
IGROV1 = test: NCI60 one-dose screen (10 μM), Ovarian Cancer; format: cell-based; conditions: Homo sapiens, IGROV-1; 10 μM; IGROV1, Ovarian Cancer; read-out: Growth percent rate
OVCAR-3 = test: NCI60 one-dose screen (10 μM), Ovarian Cancer; format: cell-based; conditions: Homo sapiens; 10 μM; OVCAR-3, Ovarian Cancer; read-out: Growth percent rate
OVCAR-8 = test: NCI60 one-dose screen (10 μM), Ovarian Cancer; format: cell-based; conditions: Homo sapiens; 10 μM; OVCAR-8, Ovarian Cancer; read-out: Growth percent rate
786–0 = test: NCI60 one-dose screen (10 μM), Renal Cancer; format: cell-based; conditions: Homo sapiens; 10 μM; 786-0, Renal Cancer; read-out: Growth percent rate
A498 = test: NCI60 one-dose screen (10 μM), Renal Cancer; format: cell-based; conditions: Homo sapiens; 10 μM; A498, Renal Cancer; read-out: Growth percent rate
ACHN = test: NCI60 one-dose screen (10 μM), Renal Cancer; format: cell-based; conditions: Homo sapiens, 10 μM, Renal Cancer, read-out: Growth percent rate
CAKI-1 = test: NCI60 one-dose screen (10 μM), Renal Cancer; format: cell-based; conditions: Homo sapiens; 10 μM; CAKI-1, Renal Cancer; read-out: Growth percent rate
SN12C = test: NCI60 one-dose screen (10 μM), Renal Cancer; format: cell-based; conditions: Homo sapiens, 10 μM, Renal Cancer, read-out: Growth percent rate
TK-10 = test: NCI60 one-dose screen (10 μM), Renal Cancer; format: cell-based; conditions: Homo sapiens; 10 μM; TK-10, Renal Cancer; read-out: Growth percent rate
MCF7 = test: NCI60 one-dose screen (10 μM), Breast Cancer; format: cell-based; conditions: Homo sapiens; 10 μM; MCF7, Breast Cancer; read-out: Growth percent rate
HS 578T = test: NCI60 one-dose screen (10 μM), Breast Cancer; format: cell-based; conditions: Homo sapiens; 10 μM; HS 578T, Breast Cancer; read-out: Growth percent rate

## CC[C@]12C=CCN3CC[C@@]4(c5ccc(OC)cc5N(C)[C@H]4[C@@](O)(C(=O)OC)[C@@H]1OC(=O)CCC(=O)N1CCN(c4ccc(C(F)(F)F)cc4)CC1)[C@@H]32 [Compound 28]
CCRF-CEM
  activity at 10 µM: 4.4%
HL-60(TB)
  activity at 10 µM: 4.32%
K-562
  activity at 10 µM: 16.9%
MOLT-4
  activity at 10 µM: 18.7%
RPMI-8226
  activity at 10 µM: 8.8%
A549/ATCC
  activity at 10 µM: 13.6%
EKVX
  activity at 10 µM: 20.9%
HOP-62
  activity at 10 µM: 30.4%
NCI-H23
  activity at 10 µM: 8.32%
NCI-H322M
  activity at 10 µM: 43.7%
NCI-H460
  activity at 10 µM: 1.83%
NCI-H522
  activity at 10 µM: -9.16%
COLO 205; 10 μM one-dose, COLO-205 colon cancer, negative = lethality
  growth percent rate: −90.33%
COLO 205; Homo sapiens, 10 μM, COLO 205, Colon Cancer, read-out: Growth percent rate
  activity at 10 µM: -90.3%
HCC-2998
  activity at 10 µM: -75.2%
HCT-116
  activity at 10 µM: 29.4%
HCT-15
  activity at 10 µM: 6.71%
HT29
  activity at 10 µM: -50.4%
KM12
  activity at 10 µM: 3.83%
SW-620
  activity at 10 µM: 20.7%
SF-295
  activity at 10 µM: 1.73%
SF-539
  activity at 10 µM: 8.28%
SNB-19
  activity at 10 µM: 16.2%
SNB-75
  activity at 10 µM: 26.2%
U251
  activity at 10 µM: 12.4%
MALME-3M
  activity at 10 µM: 2.45%
M14
  activity at 10 µM: -66.8%
MDA-MB-435
  activity at 10 µM: 5.7%
SK-MEL-2
  activity at 10 µM: -84.7%
SK-MEL-28
  activity at 10 µM: 15%
SK-MEL-5; 10 μM one-dose, SK-MEL-5 melanoma, negative = lethality
  growth percent rate: −92.46%
SK-MEL-5; Homo sapiens, 10 μM, SK-MEL-5, Melanoma, read-out: Growth percent rate
  activity at 10 µM: -92.5%
UACC-257
  activity at 10 µM: 19.5%
IGROV1
  activity at 10 µM: -42.3%
OVCAR-3
  activity at 10 µM: -2.22%
OVCAR-8
  activity at 10 µM: 10.7%
786–0
  activity at 10 µM: 20.7%
A498
  activity at 10 µM: 21.6%
ACHN
  activity at 10 µM: -3.87%
CAKI-1
  activity at 10 µM: -10.2%
SN12C
  activity at 10 µM: 9.74%
TK-10
  activity at 10 µM: -5.03%
MCF7
  activity at 10 µM: 3.97%
HS 578T
  activity at 10 µM: 20.1%

— PMC11277489, “Novel Piperazine Derivatives of Vindoline as Anticancer Agents” (International Journal of Molecular Sciences, 2024)
